Columns and labels:
Assay in all cases: relative viability (nuclei count vs DMSO), 5 days (fraction); higher = more cells survive
AT9283 + Alpelisib = compound: O=C(Nc1c[nH]nc1-c1nc2ccc(CN3CCOCC3)cc2[nH]1)NC1CC1 [AT9283] + Cc1nc(NC(=O)N2CCC[C@H]2C(N)=O)sc1-c1ccnc(C(C)(C)C(F)(F)F)c1 [Alpelisib] (partner 2 µM)
In short: (§1)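 Lung cancer cell lines in 1536-well plates got either a single drug or a fixed anchor-drug dose together with five library-drug doses (not always all listed) in √10 steps, by pin tool, on the day after seeding. Nuclei were counted after 5 days, and relative viability is the treated-to-vehicle ratio of nuclei counts. Values are medians of duplicate plates.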

AT9283 + Foretinib = compound: O=C(Nc1c[nH]nc1-c1nc2ccc(CN3CCOCC3)cc2[nH]1)NC1CC1 [AT9283] + COc1cc2c(Oc3ccc(NC(=O)C4(C(=O)Nc5ccc(F)cc5)CC4)cc3F)ccnc2cc1OCCCN1CCOCC1 [Foretinib] (partner 0.25 µM)
In short: as §1

AT9283 + Dasatinib = compound: O=C(Nc1c[nH]nc1-c1nc2ccc(CN3CCOCC3)cc2[nH]1)NC1CC1 [AT9283] + Cc1nc(Nc2ncc(C(=O)Nc3c(C)cccc3Cl)s2)cc(N2CCN(CCO)CC2)n1 [Dasatinib] (partner 0.075 µM)
In short: as §1

Erlotinib + OSI-027 = compound: C#Cc1cccc(Nc2ncnc3cc(OCCOC)c(OCCOC)cc23)c1 [Erlotinib] + COc1cccc2cc(-c3nc([C@H]4CC[C@H](C(=O)O)CC4)n4ncnc(N)c34)[nH]c12 [OSI-027] (partner 0.5 µM)
In short: as §1

Erlotinib + Pemetrexed = compound: C#Cc1cccc(Nc2ncnc3cc(OCCOC)c(OCCOC)cc23)c1 [Erlotinib] + Nc1nc2[nH]cc(CCc3ccc(C(=O)N[C@@H](CCC(=O)O)C(=O)O)cc3)c2c(=O)[nH]1 [Pemetrexed] (partner 0.2 µM)
In short: as §1

For EPLC-272H, the relative viability (AT9283 + Alpelisib; first compound 0.003 µM) was 0.872, the relative viability (AT9283 + Alpelisib; first compound 0.03 µM) was 0.831 and the relative viability (AT9283 + Alpelisib; first compound 0.09487 µM) was 0.954. For the same cell line, the relative viability (AT9283 + Alpelisib; first compound 0.3 µM) was 0.2, the relative viability (AT9283 + Foretinib; first compound 0.003 µM) was 0.622 and the relative viability (AT9283 + Foretinib; first compound 0.03 µM) was 0.217. The relative viability (AT9283 + Foretinib; first compound 0.09487 µM) was 0.12, the relative viability (AT9283 + Foretinib; first compound 0.3 µM) was 0.123 and the relative viability (AT9283 + Dasatinib; first compound 0.003 µM) was 0.342. For the same cell line, the relative viability (AT9283 + Dasatinib; first compound 0.03 µM) was 0.307, the relative viability (AT9283 + Dasatinib; first compound 0.09487 µM) was 0.106 and the relative viability (AT9283 + Dasatinib; first compound 0.3 µM) was 0.103. It also gave a relative viability (Erlotinib + OSI-027; first compound 0.02 µM) of 0.342, a relative viability (Erlotinib + OSI-027; first compound 0.2 µM) of 0.304 and a relative viability (Erlotinib + OSI-027; first compound 0.6325 µM) of 0.26. For the same cell line, the relative viability (Erlotinib + OSI-027; first compound 2 µM) was 0.196, the relative viability (Erlotinib + Pemetrexed; first compound 0.02 µM) was 0.385 and the relative viability (Erlotinib + Pemetrexed; first compound 0.2 µM) was 0.329. The relative viability (Erlotinib + Pemetrexed; first compound 0.6325 µM) was 0.29 and the relative viability (Erlotinib + Pemetrexed; first compound 2 µM) was 0.371.

Cell Line NCI-H1355 has a relative viability (AT9283 + Alpelisib; first compound 0.003 µM) of 0.855, a relative viability (AT9283 + Alpelisib; first compound 0.03 µM) of 0.898 and a relative viability (AT9283 + Alpelisib; first compound 0.09487 µM) of 0.443. The relative viability (AT9283 + Alpelisib; first compound 0.3 µM) was 0.182, the relative viability (AT9283 + Foretinib; first compound 0.003 µM) was 0.871 and the relative viability (AT9283 + Foretinib; first compound 0.03 µM) was 0.952. It also gave a relative viability (AT9283 + Foretinib; first compound 0.09487 µM) of 0.582, a relative viability (AT9283 + Foretinib; first compound 0.3 µM) of 0.272 and a relative viability (AT9283 + Dasatinib; first compound 0.003 µM) of 0.634. For the same cell line, the relative viability (AT9283 + Dasatinib; first compound 0.03 µM) was 0.727, the relative viability (AT9283 + Dasatinib; first compound 0.09487 µM) was 0.296 and the relative viability (AT9283 + Dasatinib; first compound 0.3 µM) was 0.273. It also gave a relative viability (Erlotinib + OSI-027; first compound 0.02 µM) of 0.382, a relative viability (Erlotinib + OSI-027; first compound 0.2 µM) of 0.387 and a relative viability (Erlotinib + OSI-027; first compound 0.6325 µM) of 0.325. The relative viability (Erlotinib + OSI-027; first compound 2 µM) was 0.296, the relative viability (Erlotinib + Pemetrexed; first compound 0.02 µM) was 1.06 and the relative viability (Erlotinib + Pemetrexed; first compound 0.2 µM) was 0.995. The relative viability (Erlotinib + Pemetrexed; first compound 0.6325 µM) was 1.03.

BEN showed a relative viability (AT9283 + Alpelisib; first compound 0.003 µM) of 0.969, a relative viability (AT9283 + Alpelisib; first compound 0.03 µM) of 0.987 and a relative viability (AT9283 + Alpelisib; first compound 0.09487 µM) of 0.23. For the same cell line, the relative viability (AT9283 + Alpelisib; first compound 0.3 µM) was 0.245, the relative viability (AT9283 + Foretinib; first compound 0.003 µM) was 0.47 and the relative viability (AT9283 + Foretinib; first compound 0.03 µM) was 0.65. The relative viability (AT9283 + Foretinib; first compound 0.09487 µM) was 0.185, the relative viability (AT9283 + Foretinib; first compound 0.3 µM) was 0.19 and the relative viability (AT9283 + Dasatinib; first compound 0.003 µM) was 0.256. It also gave a relative viability (AT9283 + Dasatinib; first compound 0.03 µM) of 0.369, a relative viability (AT9283 + Dasatinib; first compound 0.09487 µM) of 0.311 and a relative viability (AT9283 + Dasatinib; first compound 0.3 µM) of 0.14. It also gave a relative viability (Erlotinib + OSI-027; first compound 0.02 µM) of 0.334, a relative viability (Erlotinib + OSI-027; first compound 0.2 µM) of 0.301 and a relative viability (Erlotinib + OSI-027; first compound 0.6325 µM) of 0.317. It also gave a relative viability (Erlotinib + OSI-027; first compound 2 µM) of 0.304, a relative viability (Erlotinib + Pemetrexed; first compound 0.02 µM) of 0.766 and a relative viability (Erlotinib + Pemetrexed; first compound 0.2 µM) of 0.83. It also gave a relative viability (Erlotinib + Pemetrexed; first compound 0.6325 µM) of 1.03 and a relative viability (Erlotinib + Pemetrexed; first compound 2 µM) of 0.766.

NCI-H1623 showed a relative viability (AT9283 + Foretinib; first compound 0.003 µM) of 0.91, a relative viability (AT9283 + Foretinib; first compound 0.03 µM) of 0.837 and a relative viability (AT9283 + Foretinib; first compound 0.09487 µM) of 0.612. It also gave a relative viability (AT9283 + Foretinib; first compound 0.3 µM) of 0.487, a relative viability (AT9283 + Dasatinib; first compound 0.003 µM) of 0.567 and a relative viability (AT9283 + Dasatinib; first compound 0.03 µM) of 0.51. For the same cell line, the relative viability (AT9283 + Dasatinib; first compound 0.09487 µM) was 0.615, the relative viability (AT9283 + Dasatinib; first compound 0.3 µM) was 0.324 and the relative viability (Erlotinib + OSI-027; first compound 0.02 µM) was 0.398. For the same cell line, the relative viability (Erlotinib + OSI-027; first compound 0.2 µM) was 0.366, the relative viability (Erlotinib + OSI-027; first compound 0.6325 µM) was 0.297 and the relative viability (Erlotinib + OSI-027; first compound 2 µM) was 0.256.

NCI-H727 showed a relative viability (AT9283 + Alpelisib; first compound 0.003 µM) of 0.669, a relative viability (AT9283 + Alpelisib; first compound 0.03 µM) of 0.434 and a relative viability (AT9283 + Alpelisib; first compound 0.09487 µM) of 0.313. It also gave a relative viability (AT9283 + Alpelisib; first compound 0.3 µM) of 0.235, a relative viability (AT9283 + Foretinib; first compound 0.003 µM) of 0.689 and a relative viability (AT9283 + Foretinib; first compound 0.03 µM) of 0.649. The relative viability (AT9283 + Foretinib; first compound 0.09487 µM) was 0.437, the relative viability (AT9283 + Foretinib; first compound 0.3 µM) was 0.331 and the relative viability (AT9283 + Dasatinib; first compound 0.003 µM) was 0.423. It also gave a relative viability (AT9283 + Dasatinib; first compound 0.03 µM) of 0.467, a relative viability (AT9283 + Dasatinib; first compound 0.09487 µM) of 0.314 and a relative viability (AT9283 + Dasatinib; first compound 0.3 µM) of 0.245. The relative viability (Erlotinib + OSI-027; first compound 0.02 µM) was 0.768, the relative viability (Erlotinib + OSI-027; first compound 0.2 µM) was 0.584 and the relative viability (Erlotinib + OSI-027; first compound 0.6325 µM) was 0.461. For the same cell line, the relative viability (Erlotinib + OSI-027; first compound 2 µM) was 0.52.

With NCI-H2342 the relative viability (AT9283 + Foretinib; first compound 0.003 µM) was 1.2, the relative viability (AT9283 + Foretinib; first compound 0.03 µM) was 1.01 and the relative viability (AT9283 + Foretinib; first compound 0.09487 µM) was 0.547. The relative viability (AT9283 + Foretinib; first compound 0.3 µM) was 0.367, the relative viability (AT9283 + Dasatinib; first compound 0.003 µM) was 0.295 and the relative viability (AT9283 + Dasatinib; first compound 0.03 µM) was 0.292. It also gave a relative viability (AT9283 + Dasatinib; first compound 0.09487 µM) of 0.289, a relative viability (AT9283 + Dasatinib; first compound 0.3 µM) of 0.27 and a relative viability (Erlotinib + OSI-027; first compound 0.02 µM) of 0.596. For the same cell line, the relative viability (Erlotinib + OSI-027; first compound 0.2 µM) was 0.635, the relative viability (Erlotinib + OSI-027; first compound 0.6325 µM) was 0.556 and the relative viability (Erlotinib + OSI-027; first compound 2 µM) was 0.55. The relative viability (Erlotinib + Pemetrexed; first compound 0.02 µM) was 0.707, the relative viability (Erlotinib + Pemetrexed; first compound 0.2 µM) was 0.822 and the relative viability (Erlotinib + Pemetrexed; first compound 0.6325 µM) was 0.715. The relative viability (Erlotinib + Pemetrexed; first compound 2 µM) was 0.583.

Cell Line UMC-11 has a relative viability (AT9283 + Alpelisib; first compound 0.003 µM) of 1.01, a relative viability (AT9283 + Alpelisib; first compound 0.03 µM) of 0.148 and a relative viability (AT9283 + Alpelisib; first compound 0.09487 µM) of 0.122. The relative viability (AT9283 + Alpelisib; first compound 0.3 µM) was 0.146, the relative viability (AT9283 + Foretinib; first compound 0.003 µM) was 0.996 and the relative viability (AT9283 + Foretinib; first compound 0.03 µM) was 0.181. The relative viability (AT9283 + Foretinib; first compound 0.09487 µM) was 0.175, the relative viability (AT9283 + Foretinib; first compound 0.3 µM) was 0.184 and the relative viability (AT9283 + Dasatinib; first compound 0.003 µM) was 0.453. The relative viability (AT9283 + Dasatinib; first compound 0.03 µM) was 0.128, the relative viability (AT9283 + Dasatinib; first compound 0.09487 µM) was 0.139 and the relative viability (AT9283 + Dasatinib; first compound 0.3 µM) was 0.154. It also gave a relative viability (Erlotinib + OSI-027; first compound 0.2 µM) of 0.412, a relative viability (Erlotinib + OSI-027; first compound 0.6325 µM) of 0.492 and a relative viability (Erlotinib + OSI-027; first compound 2 µM) of 0.424. For the same cell line, the relative viability (Erlotinib + Pemetrexed; first compound 0.02 µM) was 0.759, the relative viability (Erlotinib + Pemetrexed; first compound 0.2 µM) was 0.746 and the relative viability (Erlotinib + Pemetrexed; first compound 0.6325 µM) was 0.851. It also gave a relative viability (Erlotinib + Pemetrexed; first compound 2 µM) of 0.668.

With NCI-H1755 the relative viability (AT9283 + Alpelisib; first compound 0.003 µM) was 0.996, the relative viability (AT9283 + Alpelisib; first compound 0.03 µM) was 0.874 and the relative viability (AT9283 + Alpelisib; first compound 0.09487 µM) was 0.35. For the same cell line, the relative viability (AT9283 + Alpelisib; first compound 0.3 µM) was 0.381, the relative viability (AT9283 + Foretinib; first compound 0.003 µM) was 0.871 and the relative viability (AT9283 + Foretinib; first compound 0.03 µM) was 0.755. It also gave a relative viability (AT9283 + Foretinib; first compound 0.09487 µM) of 0.559, a relative viability (AT9283 + Foretinib; first compound 0.3 µM) of 0.496 and a relative viability (AT9283 + Dasatinib; first compound 0.003 µM) of 0.451. It also gave a relative viability (AT9283 + Dasatinib; first compound 0.03 µM) of 0.437, a relative viability (AT9283 + Dasatinib; first compound 0.09487 µM) of 0.265 and a relative viability (AT9283 + Dasatinib; first compound 0.3 µM) of 0.272. The relative viability (Erlotinib + OSI-027; first compound 0.02 µM) was 0.757, the relative viability (Erlotinib + OSI-027; first compound 0.2 µM) was 0.776 and the relative viability (Erlotinib + OSI-027; first compound 0.6325 µM) was 0.786. The relative viability (Erlotinib + OSI-027; first compound 2 µM) was 0.619, the relative viability (Erlotinib + Pemetrexed; first compound 0.02 µM) was 0.477 and the relative viability (Erlotinib + Pemetrexed; first compound 0.2 µM) was 0.398. For the same cell line, the relative viability (Erlotinib + Pemetrexed; first compound 0.6325 µM) was 0.402 and the relative viability (Erlotinib + Pemetrexed; first compound 2 µM) was 0.368.

— the supplement of paper PMC10307832
